# Assay results as given in patent US20250059180A1 (DONG WHA PHARM. CO., LTD., priority 2022, published 2025).
# Where two headings read alike, the source gives them in different places.
# Columns and labels:
# EZH1 = EZH1 (Homo sapiens, UniProt Q92800); assay: AlphaLISA evaluation of inhibitory activity against EZH1; assay type: biochemical; conditions: DMSO control; for Enzyme inhibition % EZH1 5 nM: test material 5 nM; for Enzyme inhibition % EZH1 10 nM: test material 10 nM
# Procedure: (§1) In order to confirm the EZH1 and/or EZH2 activity inhibitory effect of the 1,3-benzodioxole derivative compounds represented by chemical formula I of the present invention, the activity was measured using an AlphaLISA test method.
# (§2) The test material dissolved in dimethylsulfoxide (DMSO) was diluted in a test solution (20 mM Tris pH 8.0, 0.1% BSA, 0.01% Triton X-100, 0.5 mM DTT) according to a final treatment concentration (5 nM or 10 nM), mixed with EZH1 and EZH2, respectively, and then added with histone H3 peptide and S-adenosylmethionine (SAM) to initiate an enzyme reaction. An acceptor bead was added thereto after reaction for two hours and subjected to an additional reaction for one hour, after which a donor bead was added thereto. After an additional reaction for 30 minutes, the reaction was completed. Activity was measured using the Magellan program on a Spark10M instrument. DMSO was used as a control group, an inhibition rate of enzyme activity was calculated using the following equation, and the results thereof are shown in Table 1 below.
# (§3) Activity inhibition rate (%)=(1−(Group treated with test material/Control group))*100
# EZH2 = EZH2 (Homo sapiens, UniProt Q15910); assay: AlphaLISA evaluation of inhibitory activity against EZH2; assay type: biochemical; conditions: DMSO control; for Enzyme inhibition % EZH2 5 nM: test material 5 nM; for Enzyme inhibition % EZH2 10 nM: test material 10 nM
# Chain of EZH2 (Q15910 whole entry): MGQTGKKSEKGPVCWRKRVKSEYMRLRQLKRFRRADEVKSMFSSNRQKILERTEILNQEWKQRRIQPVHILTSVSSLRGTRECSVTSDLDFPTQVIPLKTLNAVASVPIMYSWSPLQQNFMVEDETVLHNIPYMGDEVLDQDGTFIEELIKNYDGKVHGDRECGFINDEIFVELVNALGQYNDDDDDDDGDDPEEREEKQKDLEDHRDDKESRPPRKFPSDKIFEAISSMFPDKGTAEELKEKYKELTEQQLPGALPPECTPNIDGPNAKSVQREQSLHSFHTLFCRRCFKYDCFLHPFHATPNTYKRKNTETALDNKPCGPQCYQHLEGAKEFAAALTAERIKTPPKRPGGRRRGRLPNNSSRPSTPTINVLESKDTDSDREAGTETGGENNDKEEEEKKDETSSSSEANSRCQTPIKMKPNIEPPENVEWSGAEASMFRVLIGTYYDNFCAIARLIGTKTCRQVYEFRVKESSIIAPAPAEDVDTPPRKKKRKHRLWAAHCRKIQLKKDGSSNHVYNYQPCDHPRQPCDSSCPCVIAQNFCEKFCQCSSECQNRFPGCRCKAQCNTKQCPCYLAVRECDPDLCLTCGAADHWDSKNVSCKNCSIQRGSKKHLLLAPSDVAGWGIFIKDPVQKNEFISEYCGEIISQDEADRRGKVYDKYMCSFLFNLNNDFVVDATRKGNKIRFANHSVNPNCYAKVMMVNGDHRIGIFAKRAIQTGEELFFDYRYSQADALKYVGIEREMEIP
# Chain of EZH2 (O75530 whole entry partner): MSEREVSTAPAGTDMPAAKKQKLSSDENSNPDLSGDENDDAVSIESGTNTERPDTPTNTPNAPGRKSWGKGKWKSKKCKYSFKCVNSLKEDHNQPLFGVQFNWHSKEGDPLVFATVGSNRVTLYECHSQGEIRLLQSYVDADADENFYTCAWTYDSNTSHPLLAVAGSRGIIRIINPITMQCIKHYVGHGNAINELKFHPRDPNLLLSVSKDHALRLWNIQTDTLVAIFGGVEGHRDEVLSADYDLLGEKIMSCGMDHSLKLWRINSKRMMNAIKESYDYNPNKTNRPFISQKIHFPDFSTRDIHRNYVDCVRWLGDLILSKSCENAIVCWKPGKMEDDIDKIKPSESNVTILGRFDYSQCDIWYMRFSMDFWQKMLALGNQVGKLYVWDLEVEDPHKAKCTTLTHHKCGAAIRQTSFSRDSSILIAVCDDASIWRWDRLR
# Chain of EZH2 (Q15022 whole entry partner): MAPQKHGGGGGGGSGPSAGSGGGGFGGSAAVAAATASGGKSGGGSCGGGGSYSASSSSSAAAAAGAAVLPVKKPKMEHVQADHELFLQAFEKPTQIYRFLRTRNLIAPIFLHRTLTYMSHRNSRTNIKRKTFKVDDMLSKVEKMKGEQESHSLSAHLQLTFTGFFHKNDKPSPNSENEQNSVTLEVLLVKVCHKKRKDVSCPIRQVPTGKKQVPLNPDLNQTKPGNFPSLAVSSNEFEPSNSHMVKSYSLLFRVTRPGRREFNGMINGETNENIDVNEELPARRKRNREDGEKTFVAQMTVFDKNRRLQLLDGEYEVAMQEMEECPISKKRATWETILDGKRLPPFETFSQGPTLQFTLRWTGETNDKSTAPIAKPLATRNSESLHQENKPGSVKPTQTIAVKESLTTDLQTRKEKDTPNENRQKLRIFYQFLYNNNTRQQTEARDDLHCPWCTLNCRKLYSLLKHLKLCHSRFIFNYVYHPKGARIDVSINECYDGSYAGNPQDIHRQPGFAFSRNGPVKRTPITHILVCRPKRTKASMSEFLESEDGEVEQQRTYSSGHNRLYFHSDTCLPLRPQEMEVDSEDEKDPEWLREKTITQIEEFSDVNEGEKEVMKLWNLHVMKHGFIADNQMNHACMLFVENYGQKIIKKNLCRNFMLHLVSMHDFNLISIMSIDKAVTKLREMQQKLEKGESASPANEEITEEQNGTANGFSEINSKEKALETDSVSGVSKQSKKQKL
# Procedure: as §1, §2, §3
# [1] = tested on: Pfeiffer cells, lymphoma cells having EZH2 mutation (A677G); assay: Proliferation inhibition of cells of hematologic malignancies (CCK-8, 11 days); assay type: cell-based; conditions: 11 days culture, read-out: Cell proliferation inhibitory effect (IC50)
# Outline: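 Pfeiffer lymphoma cells (EZH2 A677G) in RPMI1640 with 10% FBS were seeded at 10,000 cells/well and exposed to test material for 11 days, with compound replaced every 3–4 days. Viability was read by CCK-8 absorbance at 450 nm, and IC50 was derived by non-linear regression curve fitting.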
# Chain of EZH1 (Q92800 whole entry): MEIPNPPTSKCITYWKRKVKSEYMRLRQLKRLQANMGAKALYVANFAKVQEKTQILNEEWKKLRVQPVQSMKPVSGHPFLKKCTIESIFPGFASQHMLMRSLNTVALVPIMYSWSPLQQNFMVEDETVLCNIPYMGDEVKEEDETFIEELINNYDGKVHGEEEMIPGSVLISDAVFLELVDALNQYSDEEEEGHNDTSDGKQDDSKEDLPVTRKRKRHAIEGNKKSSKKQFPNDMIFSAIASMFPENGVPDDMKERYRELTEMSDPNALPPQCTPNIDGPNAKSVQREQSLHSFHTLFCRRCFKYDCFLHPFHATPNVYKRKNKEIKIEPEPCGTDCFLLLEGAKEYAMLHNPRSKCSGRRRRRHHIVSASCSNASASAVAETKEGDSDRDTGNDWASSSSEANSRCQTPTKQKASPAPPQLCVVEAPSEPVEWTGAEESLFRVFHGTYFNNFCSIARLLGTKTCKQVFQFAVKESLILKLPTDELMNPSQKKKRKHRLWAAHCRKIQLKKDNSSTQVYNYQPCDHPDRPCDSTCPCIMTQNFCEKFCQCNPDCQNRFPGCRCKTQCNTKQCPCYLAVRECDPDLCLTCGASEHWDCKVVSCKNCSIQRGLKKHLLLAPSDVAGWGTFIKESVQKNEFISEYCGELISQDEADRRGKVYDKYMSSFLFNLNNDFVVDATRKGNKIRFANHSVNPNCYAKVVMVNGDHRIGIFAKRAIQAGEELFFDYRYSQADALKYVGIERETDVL
# Chain of EZH1 (O75530 whole entry partner): as the sequence (O75530 whole entry partner) above
# Chain of EZH1 (Q15022 whole entry partner): as the sequence (Q15022 whole entry partner) above
Compound,IC50 [1],"IC50 ([1]; Homo sapiens, Pfeiffer, 264 h)",also measured
"CSc1cc(C)[nH]c(=O)c1CNC(=O)c1cc(-c2cnc(N3CCOCC3)nc2)c2c(c1C)OC(C)(C1CCN(CC(F)(F)F)CC1)O2 (stereo not drawn) [Compound 69, 2,4-dimethyl-N-((6-methyl-4-(methylthio)-2-oxo-1,2-dihydropyridin-3-yl)methyl)-7-(2-morpholinopyrimidin-5-yl)-2-(1-(2,2,2-trifluoro)piperidin-4-yl)benzo[d][1,3]dioxole-5-carboxamide]",≤ 10 nM,,Enzyme inhibition % EZH1 5 nM (EZH1): 71.9%; Enzyme inhibition % EZH1 10 nM (EZH1): 87.9%; Enzyme inhibition % EZH2 5 nM (EZH2): 98.2%; Enzyme inhibition % EZH2 10 nM (EZH2): 99.6%
"CSc1cc(C)[nH]c(=O)c1CNC(=O)c1cc(-c2ccc(N3CCOCC3)nc2)c2c(c1C)OC(C)(C1CCN(CC(F)(F)F)CC1)O2 (stereo not drawn) [Compound 62, 2,4-dimethyl-N-((6-methyl-4-(methylthio)-2-oxo-1,2-dihydropyridin-3-yl)methyl)-7-(6-morpholinopyridin-3-yl)-2-(1-(2,2,2-trifluoro)piperidin-4-yl)benzo[d][1,3]dioxole-5-carboxamide]",≤ 10 nM,,Enzyme inhibition % EZH1 5 nM (EZH1): 66.9%; Enzyme inhibition % EZH1 10 nM (EZH1): 81.8%; Enzyme inhibition % EZH2 5 nM (EZH2): 93.6%; Enzyme inhibition % EZH2 10 nM (EZH2): 99.4%
CSc1cc(C)[nH]c(=O)c1CNC(=O)c1cc(-c2ccc(N3C[C@@H](C)O[C@@H](C)C3)nc2)c2c(c1C)OC(C)([C@H]1CC[C@H](N3CC(OCCCC(F)(F)F)C3)CC1)O2 (stereo partly drawn) [Compound 104],,≤ 10 nM,Enzyme inhibition % EZH1 10 nM (EZH1): 19.9%; Enzyme inhibition % EZH2 5 nM (EZH2): 37.0%; Enzyme inhibition % EZH2 10 nM (EZH2): 82.6%
"CCN1CCC(C2(C)Oc3c(-c4ccc(N5CCOCC5)nc4)cc(C(=O)NCc4c(SC)cc(C)[nH]c4=O)c(C)c3O2)CC1 (single isomer, unassigned) [Compound 66, 2-(1-ethylpiperidin-4-yl)-2,4-dimethyl-N-((6-methyl-4-(methylthio)-2-oxo-1,2-dihydropyridin-3-yl)methyl)-7-(6-morpholinopyridin-3-yl)benzo[d][1,3]dioxole-5-carboxamide]",≤ 10 nM,,
"CSc1cc(C)[nH]c(=O)c1CNC(=O)c1cc(-c2ccc(N3C[C@@H](C)O[C@@H](C)C3)nc2)c2c(c1C)OC(C)(C1CCN(C[C@H](C)O)CC1)O2 (stereo partly drawn) [Compound 40, 7-(6-((2S,6R)-2,6-dimethylmorpholino)pyridin-3-yl)-2-(1-((S)-2-hydroxypropyl)piperidin-4-yl)-2,4-dimethyl-N-((6-methyl-4-(methylthio)-2-oxo-1,2-dihydropyridin-3-yl)methyl)benzo[d][1,3]dioxole-5-carboxamide]",,≤ 10 nM,
"CSc1cc(C)[nH]c(=O)c1CNC(=O)c1cc(-c2ccc(N3CCC(F)(F)CC3)nc2)c2c(c1C)OC(C)([C@H]1CC[C@H](N(C)C)CC1)O2 (stereo partly drawn) [Compound 3, 7-(6-(4,4-difluoropiperidin-1-yl)pyridin-3-yl)-2-(trans-4-(dimethylamino)cyclohexyl)-2,4-dimethyl-N-((6-methyl-4-(methylthio)-2-oxo-1,2-dihydropyridin-3-yl)methyl)benzo[d][1,3]dioxole-5-carboxamide]",,≤ 10 nM,
"CCN1CCN(c2ncc(-c3cc(C(=O)NCc4c(SC)cc(C)[nH]c4=O)c(C)c4c3OC(C)(C3CCN(CC(F)(F)F)CC3)O4)cn2)CC1 (single isomer, unassigned) [Compound 77, 7-(2-(4-ethylpiperazin-1-yl)pyrimidin-5-yl)-2,4-dimethyl-N-((6-methyl-4-(methylthio)-2-oxo-1,2-dihydropyridin-3-yl)methyl)-2-(1-(2,2,2-trifluoroethyl)piperidin-4-yl)benzo[d][1,3]dioxole-5-carboxamide]",≥ 100 nM,,
"CSc1cc(C)[nH]c(=O)c1CNC(=O)c1cc(-c2cnc(N(C)C)nc2)c2c(c1C)OC(C)([C@H]1CC[C@H](N(C)CC(F)(F)F)CC1)O2 (stereo partly drawn) [Compound 22, 7-(2-(dimethylamino)pyrimidin-5-yl)-2,4-dimethyl-2-(trans-4-(methyl(2,2,2-trifluoroethyl)amino)cyclohexyl)-N-((6-methyl-4-(methylthio)-2-oxo-1,2-dihydropyridin-3-yl)methyl)benzo[d][1,3]dioxole-5-carboxamide]",,≤ 10 nM,
"CSc1cc(C)[nH]c(=O)c1CNC(=O)c1cc(-c2ccc(N3C[C@@H](C)O[C@@H](C)C3)nc2)c2c(c1C)OC(C)([C@H]1CC[C@H](N(C)CC(F)(F)F)CC1)O2 (single isomer, unassigned) [Compound 108]",≥ 100 nM,,
"CSc1cc(C)[nH]c(=O)c1CNC(=O)c1cc(-c2ccc(N3C[C@@H](C)O[C@@H](C)C3)nc2)c2c(c1C)OC(C)([C@H]1CC[C@H](N(C)CC(F)(F)F)CC1)O2 (single isomer, unassigned) [Compound 107]",≤ 10 nM,,
"CSc1cc(C)[nH]c(=O)c1CNC(=O)c1cc(-c2ccc(Cl)s2)c2c(c1C)OC(C)([C@H]1CC[C@H](N(C)C)CC1)O2 (stereo partly drawn) [Compound 19, 7-(5-chlorothiophen-2-yl)-2-(trans-4-(dimethylamino)cyclohexyl)-2,4-dimethyl-N-((6-methyl-4-(methylthio)-2-oxo-1,2-dihydropyridin-3-yl)methyl)benzo[d][1,3]dioxole-5-carboxamide]",,≤ 10 nM,
"CCN(C)c1ccc(-c2cc(C(=O)NCc3c(SC)cc(C)[nH]c3=O)c(C)c3c2OC(C)(C2CCN(CC(F)F)CC2)O3)cn1 (single isomer, unassigned) [Compound 88, 2-(1-(2,2-difluoroethyl)piperidin-4-yl)-7-(6-(ethyl(methyl)amino)pyridin-3-yl)-2,4-dimethyl-N-((6-methyl-4-(methylthio)-2-oxo-1,2-dihydropyridin-3-yl)methyl)benzo[d][1,3]dioxole-5-carboxamide]",,≤ 10 nM,
"CSc1cc(C)[nH]c(=O)c1CNC(=O)c1cc(-c2ccc(N3CCSCC3)nc2)c2c(c1C)OC(C)(C1CCN(CC(F)(F)F)CC1)O2 (stereo not drawn) [Compound 34, 2,4-dimethyl-N-((6-methyl-4-(methylthio)-2-oxo-1,2-dihydropyridin-3-yl)methyl)-7-(6-thiomorpholinopyridin-3-yl)-2-(1-(2,2,2-trifluoroethyl)piperidin-4-yl)benzo[d][1,3]dioxole-5-carboxamide]",,≤ 10 nM,
"COCCN(C)[C@H]1CC[C@H](C2(C)Oc3c(-c4ccc(N5C[C@@H](C)O[C@@H](C)C5)nc4)cc(C(=O)NCc4c(SC)cc(C)[nH]c4=O)c(C)c3O2)CC1 (stereo partly drawn) [Compound 24, 7-(6-((2S,6R)-2,6-dimethylmorpholino)pyridin-3-yl)-2-(trans-4-((2-methoxyethyl)(methyl)amino)cyclohexyl)-2,4-dimethyl-N-((6-methyl-4-(methylthio)-2-oxo-1,2-dihydropyridin-3-yl)methyl)benzo[d][1,3]dioxole-5-carboxamide]",,≤ 10 nM,
"CSc1cc(C)[nH]c(=O)c1CNC(=O)c1cc(-c2ccc(N3C[C@@H](C)O[C@@H](C)C3)nc2)c2c(c1C)OC(C)([C@H]1CC[C@H](N(C)C(C)C)CC1)O2 (stereo partly drawn) [Compound 110, 7-(6-((2S,6R)-2,6-dimethylmorpholino)pyridin-3-yl)-2-(trans-4-(isopropyl(methyl)amino)cyclohexyl)-2,4-dimethyl-N-((6-methyl-4-(methylthio)-2-oxo-1,2-dihydropyridin-3-yl)methyl)benzo[d][1,3]dioxole-5-carboxamide]",,≤ 10 nM,
"COC(CN1CCC(C2(C)Oc3c(-c4ccc(N5C[C@@H](C)O[C@@H](C)C5)nc4)cc(C(=O)NCc4c(SC)cc(C)[nH]c4=O)c(C)c3O2)CC1)OC (stereo partly drawn) [Compound 41, 2-(1-(2,2-dimethoxyethyl)piperidin-4-yl)-7-(6-((2S,6R)-2,6-dimethylmorpholino)pyridin-3-yl)-2,4-dimethyl-N-((6-methyl-4-(methylthio)-2-oxo-1,2-dihydropyridin-3-yl)methyl)benzo[d][1,3]dioxole-5-carboxamide]",,≤ 10 nM,
